# pIC50: −log10 of the molar value.
# Target: T1, Aldo-keto reductase family 1 member C3 (Homo sapiens, UniProt P42330)
# T1 sequence (P42330 whole entry): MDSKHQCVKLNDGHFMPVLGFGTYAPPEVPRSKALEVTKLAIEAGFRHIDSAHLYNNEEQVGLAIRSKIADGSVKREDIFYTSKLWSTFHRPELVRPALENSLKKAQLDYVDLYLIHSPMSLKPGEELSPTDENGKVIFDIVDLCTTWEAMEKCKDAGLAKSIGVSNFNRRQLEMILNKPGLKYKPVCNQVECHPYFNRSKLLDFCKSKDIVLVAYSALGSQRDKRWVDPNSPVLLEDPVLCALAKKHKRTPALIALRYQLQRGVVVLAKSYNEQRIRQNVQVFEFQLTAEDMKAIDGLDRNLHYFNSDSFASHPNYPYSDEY
# Assay: Inhibition of AKR1C3 by fluorimetric method
row,SMILES,pIC50
1,O=C(O)c1cccc(Nc2ccc(C(F)(F)F)cc2)c1,7.21
2,O=C(O)c1cccc(Nc2ccc(Cl)cc2)c1,6.89
3,COc1ccc(Nc2cccc(C(=O)O)c2)cc1,6.31
4,Cc1ccc(Nc2cccc(C(=O)O)c2)cc1,6.15
5,O=C(O)c1ccccc1Nc1cccc(C(F)(F)F)c1 [FLUFENAMIC ACID],7.29

# Source: ChEMBL document CHEMBL1681639, “Discovery of substituted 3-(phenylamino)benzoic acids as potent and selective inhibitors of type 5 17β-hydroxysteroid dehydrogenase (AKR1C3)” (Bioorg Med Chem Lett, 2011)
